Measurements published in patent US20220241255A1, “COMBINATION CONTAINING SGC ACTIVATORS AND MINERALOCORTICOID RECEPTOR ANTAGONISTS” (Bayer Pharma Aktiengesellschaft, priority 2016, published 2022).

Legend:
[1] = test system: L-NAME-treated transgenic renin rat (TGR(mRen2)27); assay: All-cause mortality / survival in L-NAME-treated renin transgenic rats; format: in vivo; conditions: for Mortality: all-cause mortality during the study period, daily gavage, 15 animals per group, groups and doses per Table 1; for survival rate / animals died during the study period: finerenone 10 mg/kg od, compound of the formula (X) 1 mg/kg bid, alone or combined; for survival rate: over the study period, placebo survival 60%; for animals died during the study period: study terminated after 40% of placebo animals had died
Excerpt: (§1) 3.) L-NAME-treated transgenic renin rat (TGR(mRen2)27)
(§2) The transgenic renin rat ‘TGR(mRen2)27’ is a hypertensive rat line developed by Mullins and Ganten which overexpresses the Ren-2 gene of the mouse. Additional administration of the nitrogen monoxide synthase inhibitor L-NAME induces endothelial dysfunction which increases morbidity and mortality in this model. Unless subjected to life-long antihypertensive therapy, homozygous animals die of secondary complications such as heart and kidney failure or stroke.
(§3) Male TGR(mRen2)27 renin rats aged 10 to 20 weeks are randomized to different pharmacological treatment groups and a placebo group. In addition, the nitrogen monoxide synthase inhibitor L-NAME is administered via the drinking water in a concentration of 30 to 100 mg/l. During the entire experiment, drinking water and feed are available ad libitum to the animals. The substances are administered via the feed or daily by gavage for 4-10 weeks. Animals treated in the same way but receiving either only the solvent or the feed without test substance serve as placebo group. During the experiment, the systolic blood pressure is determined at regular intervals using a tail cuff, and proteinuria and urine electrolyte composition are determined by collecting the urine in metabolic cages. At the end of the experiment, haemodynamic parameters (blood pressure, heart rate, inotropism[dp/dt], relaxation time[tau], maximum left ventricular pressure, left ventricular end-diastolic pressure[LVEDP]) are measured, and the weights of heart, kidney and lung are determined, protein elimination and biomarkers (e.g. ANP, RIA Kit RK 005-24, Phoenix Pharmaceuticals, Inc., USA, cGMP, RIA Kit RE29075, IBL International GmbH, Hamburg, Germany, renin, angiotensin I, RIA Kit CA-1533, DiaSorin S.p.A., Italy, and aldosterone, P2714, DiaSorin S.p.A., Italy) and gene expression of biomarkers by RT/TaqMan PCR following RNA isolation from cardiac and renal tissue are determined.
(§4) Cardiac and cardiovascular disorders as well as renal and cardiorenal disorders are characterized by high patient morbidity and also high mortality. This morbidity and mortality, together with various risk factors such as hypertension, can be reproduced very accurately in the above-described animal model of the L-NAME-treated renin transgenic rat. Therefore, this animal model, for example, was used to investigate MR antagonists such as, for example, finerenone according to the compound of the formula (IV) and sGC activators such as, for example, the compound of the formula (X), and combinations of both: […]
For example, the MR antagonist finerenone, corresponding to the compound of the formula (IV), and the sGC activator, corresponding to the compound of the formula (X), were tested on their own and in combinations in TGR(mRen2)27 renin rats aged 10 to 20 weeks. In addition, the nitrogen monoxide synthase inhibitor L-NAME was administered via the drinking water in a concentration of 30 to 100 mg/l. During the entire experiment, drinking water and feed were available ad libitum to the animals. The substances were administered daily by gavage for 4-10 weeks. Animals treated in the same way but receiving only the solvent for the test substance served as placebo group. In the test series, in addition to placebo (group A), the MR antagonist finerenone (10 mg/kg od) (group B) and the sGC activator corresponding to the compound of the formula (X) (1 mg/kg bid) (group C) on their own and a combination of finerenone (10 mg/kg od)+compound of the formula (X) (1 mg/kg bid) (group D) were administered. In this study, 15 animals were used per group (A, B, C, D) (Table 1):
After 40% of the placebo animals had died—the study was generally terminated once 40-50% of the placebo-treated animals had died, which corresponds to a survival rate of 60-50%—the study was terminated and the survival rates of the individual treatment groups were compared to one another.

[2] = test system: L-NAME-treated transgenic renin rat (TGR(mRen2)27); assay: Proteinuria (protein/creatinine quotient in urine) in L-NAME-treated renin transgenic rats; format: in vivo; conditions: for reduction of proteinuria, measured as protein/creatinine quotient in urine: finerenone 10 mg/kg od, compound of the formula (X) 1 mg/kg bid, alone or combined, versus placebo; for Urinary protein/creatinine quotient, % change vs placebo: proteinuria in % reduction from placebo at the end of the study, mean ± SEM, groups and doses per Table 1
Excerpt: as §1, §2, §3, §4
Here, the quotient of protein excreted in the urine and creatinine excreted in the urine, the so-called protein/creatinine quotient, which can be used as a quantitative measure for the kidney damage, is determined.

SMILES | Mortality [1] [%] | survival rate [1] [%] | animals died during the study period [1] [%] | reduction of proteinuria, measured as protein/creatinine quotient in urine [2] [%] | Urinary protein/creatinine quotient, % change vs placebo [2]
C[C@H]([C@H](C(=O)Nc1cc([C@@H](CC(=O)O)C2CC2)ccc1Cl)c1ccc(Cl)cc1)C(F)(F)F [compound of the formula (X), (3S)-3-(4-chloro-3-{[(2S,3R)-2-(4-chlorophenyl)-4,4,4-trifluoro-3-methylbutanoyl]amino}phenyl)-3-cyclopropylpropanoic acid] | 27 | 73 | 27 | 8 | −8 + 20%
CCOc1ncc(C)c2c1[C@H](c1ccc(C#N)cc1OC)C(C(N)=O)=C(C)N2 [finerenone, (S)-4-(4-cyano-2-methoxyphenyl)-5-ethoxy-2,8-dimethyl-1,4-dihydro-1,6-naphthyridine-3-carboxamide] | 20 | 80 | 20 | 58 | −58 + 16%
